These molecules were tested against human M4 receptor (Homo sapiens (Human), UniProt P08173) (assay: Binding assay: inhibition of radioligand (tritiated N-methylscopolamine) binding to membranes from CHO cells expressing human M4 receptor). Details: CHO cell membranes, 1.5 nM tritiated N-methylscopolamine.
Method: Binding affinity (Ki) for the compounds was measured by inhibition of radioligand binding to membranes from CHO cells expressing human M4 receptor. Membranes were prepared by nitrogen cavitation and differential centrifugation as previously described (Hoare et al., Mol. Pharmacol. 2003 March; 63(3): 751-65). The radioligand employed was tritiated N-methylscopolamine, used at a concentration of 1.5 nM. A dose-response of twelve concentrations of compound was used, ranging from […]. The assay buffer was 50 mM HEPES, 100 mM NaCl, 5 mM MgCl2, 1 mM ethylenediaminetetraacetic acid, pH-adjusted to pH 7.4. Membranes, radioligand and compound were incubated together for 90 minutes at 37° C., in a total volume of 150 μL in a 96-well plate. Receptor-bound radioligand was then collected by harvesting the assay over glass fiber filters pretreated with polyethylenimine to trap the cell membranes, using rapid vacuum filtration. Harvesting and radioactivity counting was conducted as previously described (see, e.g., Hoare et al., Mol. Pharmacol. 2003 63(3):751-65); Erratum at Mol. Pharmacol. 2005 July; 68(1): 260).

Sequence of human M4 receptor (P08173 whole entry): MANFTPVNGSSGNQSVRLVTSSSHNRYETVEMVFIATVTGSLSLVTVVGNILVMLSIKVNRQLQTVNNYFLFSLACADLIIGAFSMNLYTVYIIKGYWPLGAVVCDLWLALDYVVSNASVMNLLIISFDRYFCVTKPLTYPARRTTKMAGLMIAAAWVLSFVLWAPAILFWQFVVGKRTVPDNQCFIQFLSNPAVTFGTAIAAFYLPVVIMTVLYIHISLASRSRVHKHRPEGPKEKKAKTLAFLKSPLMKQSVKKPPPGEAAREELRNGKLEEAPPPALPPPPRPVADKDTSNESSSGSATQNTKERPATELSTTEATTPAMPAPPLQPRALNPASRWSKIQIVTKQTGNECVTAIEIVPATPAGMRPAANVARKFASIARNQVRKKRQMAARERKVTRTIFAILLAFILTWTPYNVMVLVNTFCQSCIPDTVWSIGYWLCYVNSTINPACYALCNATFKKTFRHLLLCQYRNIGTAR

Row | Structure (SMILES) | Ki
1 | C[C@@H]1CN(c2ncc(S(C)(=O)=O)cn2)C[C@H](C)N1C(=O)OC1CC2(C1)CN(Cc1ccc(Cl)cc1)C2 [Compound 36, 2-[(4-chlorophenyl)methyl]-2-azaspiro[3.3] heptan-6-yl (2R,6S)-4-(5-methanesulfonylpyrimidin-2-yl)-2,6-dimethyl-piperazine-1-carboxylate] | < 100 nM
2 | C[C@@H]1CN(c2ncc(S(=O)(=O)C3CC3)cn2)[C@@H](C)CN1C(=O)NC1CC2(C1)CN(Cc1ccccc1)C2 [Compound 6, (2R,5S)-N-{2-benzyl-2-azaspiro[3.3]heptan-6-yl}-4-[5-(cyclopropane-sulfonyl)pyrimidin-2-yl]-2,5-dimethylpiperazine-1-carboxamide] | < 100 nM
3 | C[C@@H]1CN(c2ncc(S(C)(=O)=O)cn2)[C@@H](C)CN1C(=O)NC1CC2(C1)CN(Cc1ccccc1)C2 [Compound 4, (2R,5S)-N-{2-benzyl-2-azaspiro[3.3]heptan-6-yl}-4-(5-methanesulfonyl-pyrimidin-2-yl)-2,5-dimethylpiperazine-1-carboxamide] | 100 to 500 nM
4 | COc1ccccc1CN1CC2(CC(OC(=O)N3[C@H](C)CN(c4ncc(S(C)(=O)=O)cn4)C[C@@H]3C)C2)C1 [Compound 62, 2-[(2-methoxyphenyl)methyl]-2-azaspiro[3.3] heptan-6-yl (2R,6S)-4-(5-methanesulfonylpyrimidin-2-yl)-2,6-dimethyl-piperazine-1-carboxylate] | ≥ 500 nM
5 | C[C@@H]1CN(c2ncc(S(=O)(=O)C3CC3)cn2)CCN1C(=O)NC1CC2(C1)CN(Cc1ccccc1)C2 [Compound 8, (2R)-N-{2-benzyl-2-azaspiro[3.3]heptan-6-yl}-4-[5-(cyclopropanesulfonyl)pyrimidin-2-yl]-2-methylpiperazine-1-carboxamide] | 100 to 500 nM

Second part, the molecule after the results:

Row | Ki | Structure (SMILES)
6 | ≥ 500 nM | C[C@@H]1CN(c2ncc(N3CCC3=O)cn2)C[C@H](C)N1C(=O)OC1CC2(C1)CN(Cc1ccccc1)C2 [Compound 29, 2-benzyl-2-azaspiro [3.3]heptan-6-yl (2R,6S)-2,6-dimethyl-4-[5-(2-oxoazetidin-1-yl)pyrimidin-2-yl] piperazine-1-carboxylate]
7 | ≥ 500 nM | C[C@@H]1CN(c2ncc(N3CCCC3=O)cn2)C[C@H](C)N1C(=O)OC1CC2(C1)CN(Cc1ccccc1)C2 [Compound 30, 2-benzyl-2-azaspiro [3.3]heptan-6-yl (2R,6S)-2,6-dimethyl-4-[5-(2-oxopyrrolidin-1-yl)pyrimidin-2-yl]piperazine-1-carboxylate]
8 | ≥ 500 nM | C[C@@H]1CN(c2ncc(O)cn2)C[C@H](C)N1C(=O)OC1CC2(C1)CN(Cc1ccccc1)C2 [Compound 51, 2-benzyl-2-azaspiro [3.3]heptan-6-yl (2R,6S)-4-(5-hydroxypyrimidin-2-yl)-2,6-dimethyl-piperazine-1-carboxylate]
9 | < 100 nM | CCS(=O)(=O)c1cnc(N2C[C@@H](C)N(C(=O)OC3CC4(C3)CN(Cc3ccccc3)C4)[C@@H](C)C2)nc1 [Compound 32, 2-benzyl-2-azaspiro [3.3]heptan-6-yl (2R,6S)-4-[5-(ethane-sulfonyl)pyrimidin-2-yl]-2,6-dimethylpiperazine-1-carboxylate]
10 | ≥ 500 nM | C[C@H](O)COc1cnc(N2C[C@@H](C)N(C(=O)OC3CC4(C3)CN(Cc3ccccc3)C4)[C@@H](C)C2)nc1 [Compound 55, 2-benzyl-2-azaspiro [3.3]heptan-6-yl (2R,6S)-4-{5-[(2S)-2-hydroxypropoxy]pyrimidin-2-yl}-2,6-dimethylpiperazine-1-carboxylate]
11 | < 100 nM | C[C@@H]1CN(c2ncc(S(C)(=O)=O)cn2)[C@@H](C)CN1C(=O)OC1CC2(C1)CN(Cc1ccccc1)C2 [Compound 12, 2-benzyl-2-azaspiro [3.3]heptan-6-yl (2R,5S)-4-(5-methane-sulfonylpyrimidin-2-yl)-2,5-dimethylpiperazine-1-carboxylate]
12 | < 100 nM | C[C@@H]1CN(c2ncc(S(=O)(=O)C3CC3)cn2)CCN1C(=O)OC1CC2(C1)CN(Cc1ccccc1)C2 [Compound 22, 2-benzyl-2-azaspiro [3.3]heptan-6-yl (2R)-4-[5-(cyclopropanesulfonyl)pyrimidin-2-yl]-2-methylpiperazine-1-carboxylate]

Source: US20250092022A1, “MUSCARINIC RECEPTOR 4 ANTAGONISTS AND METHODS OF USE” (Neurocrine Biosciences, Inc., priority 2021, published 2025)
